72 compounds from patent US20220281831A1, “FUSED-GLUTARIMIDE CRBN LIGANDS AND USES THEREOF” (Kymera Therapeutics, Inc., priority 2019, published 2022) can be followed below.

Usually pIC50 stands for the IC50 on a negative log10 scale, so that one unit is a factor of ten.

This assay deals with His-tagged CRBN-DDB1 complex (Homo sapiens, UniProt Q96SW2). Kind of assay: Time-Resolved Fluorescence Resonance Energy Transfer (TR-FRET / HTRF) CRBN binding assay, displacement of Cy5-labeled thalidomide. The settings on record: His-CRBN-DDB1, Cy5-thalidomide 8 nM, 1 hour room temperature. The protocol:
Time-Resolved Fluorescence Resonance Energy Transfer (TR-FRET) Assay.
Equal volumes of His-tagged CRBN-DDB1 complex (56 nM) was mixed with Eu-cryptate labeled Anti-6HIS-monoclonal antibody (50× dilution from the commercial stock solution, Vender: Cisbio, Cat. #61HI2KLA) in a final buffer containing 20 mM HEPES pH 7.0, 150 mM NaCl, 0.005% Tween-20. […] The mixture were incubated at room temperature for 1 hour. FRET signals were measured on an EnVision plate reader (Perkin Elmer) by exciting at 340 nm and recording emission at both 615 nm as no FRET control and 665 nm as the FRET signals with a 60 microsecond delay. FRET efficiency was calculated as the ratio of fluorescent signals at […]. Quantitative loss of FRET efficiency as a function of compound concentrations was fitted by a four-parameter Logistic Function using GraphPad Prism 7.0 and the IC50 values were reported for each compound.
The compound numbers correspond to the compound numbers in Table 1.

pIC50: −log10 of the molar value.

His-tagged CRBN-DDB1 complex, sequence (Q96SW2 whole entry): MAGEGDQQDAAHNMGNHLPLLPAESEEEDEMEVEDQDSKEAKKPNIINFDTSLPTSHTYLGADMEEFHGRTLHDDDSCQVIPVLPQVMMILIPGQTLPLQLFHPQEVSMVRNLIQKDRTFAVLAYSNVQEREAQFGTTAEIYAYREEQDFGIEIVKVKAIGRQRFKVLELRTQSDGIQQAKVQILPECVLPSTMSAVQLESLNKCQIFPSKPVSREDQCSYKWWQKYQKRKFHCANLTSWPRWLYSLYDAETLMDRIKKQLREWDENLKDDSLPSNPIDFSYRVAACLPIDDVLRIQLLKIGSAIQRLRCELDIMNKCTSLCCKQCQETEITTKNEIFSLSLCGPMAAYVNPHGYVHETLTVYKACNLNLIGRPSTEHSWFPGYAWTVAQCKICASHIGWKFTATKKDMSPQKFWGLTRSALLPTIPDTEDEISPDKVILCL
His-tagged CRBN-DDB1 complex, sequence (Q16531 whole entry partner): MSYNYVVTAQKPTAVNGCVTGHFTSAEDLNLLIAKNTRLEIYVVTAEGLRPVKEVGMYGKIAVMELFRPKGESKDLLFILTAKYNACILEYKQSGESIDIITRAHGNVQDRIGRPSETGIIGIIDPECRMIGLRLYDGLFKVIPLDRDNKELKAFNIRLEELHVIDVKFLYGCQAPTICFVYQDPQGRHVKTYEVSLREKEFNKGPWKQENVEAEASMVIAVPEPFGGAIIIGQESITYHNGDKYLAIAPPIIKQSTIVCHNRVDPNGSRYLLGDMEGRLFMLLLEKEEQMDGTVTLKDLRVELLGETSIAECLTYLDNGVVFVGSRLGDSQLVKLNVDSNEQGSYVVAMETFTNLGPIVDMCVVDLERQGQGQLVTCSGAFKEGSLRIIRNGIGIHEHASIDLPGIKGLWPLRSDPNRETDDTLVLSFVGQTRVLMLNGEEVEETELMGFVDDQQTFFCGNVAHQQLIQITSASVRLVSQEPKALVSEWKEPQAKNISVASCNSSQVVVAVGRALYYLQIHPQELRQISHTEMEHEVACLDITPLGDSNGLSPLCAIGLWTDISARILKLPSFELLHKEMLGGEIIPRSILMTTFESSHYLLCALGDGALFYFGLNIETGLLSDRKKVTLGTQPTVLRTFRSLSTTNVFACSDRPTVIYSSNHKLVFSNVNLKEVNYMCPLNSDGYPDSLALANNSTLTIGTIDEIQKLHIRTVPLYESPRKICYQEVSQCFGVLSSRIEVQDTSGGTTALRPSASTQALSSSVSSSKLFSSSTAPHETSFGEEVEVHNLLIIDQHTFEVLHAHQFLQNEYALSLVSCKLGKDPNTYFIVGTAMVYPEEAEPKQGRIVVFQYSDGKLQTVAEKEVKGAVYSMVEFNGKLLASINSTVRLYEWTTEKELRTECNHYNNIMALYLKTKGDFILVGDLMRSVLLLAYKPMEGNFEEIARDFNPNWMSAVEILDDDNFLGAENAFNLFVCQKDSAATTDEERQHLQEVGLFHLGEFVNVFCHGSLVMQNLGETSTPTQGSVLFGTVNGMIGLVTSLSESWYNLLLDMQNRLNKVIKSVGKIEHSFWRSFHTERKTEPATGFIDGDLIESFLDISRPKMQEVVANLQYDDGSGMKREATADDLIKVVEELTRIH

Turning to `CC(C)(C)OC(=O)NCc1ccc(N2CCC3(CC2)CC(=O)NC(=O)C3)cc1` [Compound I-108], the pIC50 was 4.00 to 4.52.

In the case of `O=C1CC2(CCN(c3ccc(OCc4ccccc4)cc3)CC2)CC(=O)N1` [Compound I-91], the pIC50 is < 4.00.

On to `COc1ccc2cc(N3C[C@@H]4C(=O)NC(=O)[C@@H]4C3)ccc2c1` [Compound I-155], for which the negative logarithm of the IC50 (pIC50) was < 4.00.

With `O=C1CC2(Nc3ccccc3C2=O)C(=O)N1` (stereo not drawn) [Compound I-195, 1H-spiro[indole-2,3′-pyrrolidine]-2′,3,5′-trione], the pIC50 is < 4.00.

Turning to `COc1cc(F)ccc1N1CCC2(CC1)CC(=O)NC(=O)C2` [Compound I-87], the pIC50 is < 4.00.

In turn, `CCCOc1ccc(N2CCC3(CC2)CC(=O)NC(=O)C3)cc1` [Compound I-95] had a pIC50 of 4.00 to 4.52.

With `O=C1CC2(CCN(Cc3ccccc3)CC2)CC(=O)N1` [Compound I-374], the pIC50 was < 4.00.

`COc1cccc(N2C[C@@H]3C(=O)NC(=O)[C@@H]3C2)c1` [Compound I-125]: the pIC50 is < 4.00.

Turning to `O=C1NC(=O)[C@@H]2CN(C(=O)c3ccnc(Cl)c3)C[C@H]12` [Compound I-301], the pIC50 is < 4.00.

Consider `O=C1NC(=O)[C@@H]2CN(c3ccc(OCc4ccccc4)cc3)C[C@H]12` [Compound I-128], for which the pIC50 is < 4.00.

As to `O=C1CC2(CCN(Cc3cccc(O)c3)CC2)CC(=O)N1` [Compound I-347], the pIC50 was < 4.00.

In the case of `O=C1NC(=O)[C@@H]2CN(C(=O)c3ccco3)C[C@H]12` [Compound I-308], the pIC50 is < 4.00.

For `O=C1NC(=O)[C@@H]2CN(C(=O)COCc3ccccc3)C[C@H]12` [Compound I-303], the pIC50 was < 4.00.

Turning to `CC(=O)Nc1cccc(N2C[C@@H]3C(=O)NC(=O)[C@@H]3C2)c1` [Compound I-136], the pIC50 was < 4.00.

In the case of `O=C1NC(=O)[C@@H]2CN(Cc3cccc4cccnc34)C[C@H]12` [Compound I-315], the negative logarithm of the IC50 (pIC50) was < 4.00.

With `O=C1CC2(CCN(c3ccc(Br)cc3)CC2)CC(=O)N1` [Compound I-86], the pIC50 was < 4.00.

As for `O=C1NC(=O)[C@@H]2CN(c3cccc4cccnc34)C[C@H]12` [Compound I-146], the pIC50 is < 4.00.

Consider `Cc1ncoc1C(=O)N1CCC2(CC1)CC(=O)NC(=O)C2` [Compound I-358], for which the negative logarithm of the IC50 (pIC50) is < 4.00.

Regarding `Cc1ccc(N2C[C@@H]3C(=O)NC(=O)[C@@H]3C2)cc1` [Compound I-130], the pIC50 is 4.00 to 4.52.

Take `Cc1cccc(C(=O)N2CCC3(CC2)CC(=O)NC(=O)C3)c1` [Compound I-365]: the pIC50 is < 4.00.

As for `O=Cc1ccc(N2CCC3(CC2)CC(=O)NC(=O)C3)cc1` [Compound I-112], the pIC50 was < 4.00.

As for `O=C1NC(=O)[C@@H]2CN(C(=O)c3cc4ccccc4cn3)C[C@H]12` [Compound I-168], the pIC50 is < 4.00.

As for `O=C1NC(=O)[C@@H]2CN(C(=O)c3ccc(F)cc3)C[C@H]12` [Compound I-322], the pIC50 was < 4.00.

In the case of `CS(=O)(=O)c1ccc(N2CCC3(CC2)CC(=O)NC(=O)C3)cc1` [Compound I-107], the negative-log IC50 (pIC50) is < 4.00.

Turning to `O=C1CC2(CCN(C(=O)c3ccn[nH]3)CC2)CC(=O)N1` [Compound I-341], the negative logarithm of the IC50 (pIC50) was < 4.00.

Turning to `O=C1CC2(CCN(C3CCCC3)CC2)CC(=O)N1` [Compound I-351], the pIC50 was < 4.00.

Turning to `O=Cc1ccc(N2C[C@@H]3C(=O)NC(=O)[C@@H]3C2)cc1` [Compound I-149], the pIC50 is < 4.00.

As for `CN1C(=O)C2(CC(=O)NC2=O)c2ccccc21` (stereo not drawn) [Compound I-184], the pIC50 was < 4.00.

Regarding `O=C1CC2(CCN(c3cccc4cccnc34)CC2)CC(=O)N1` [Compound I-109], the pIC50 is < 4.00.

For `COc1ccc(C(=O)N2CCC3(CC2)CC(=O)NC(=O)C3)cn1` [Compound I-355], the pIC50 is < 4.00.

For `Cc1ccc(CN2CCC3(CC2)CC(=O)NC(=O)C3)o1` [Compound I-356], the pIC50 was < 4.00.

For the compound `NC(=O)c1ccc(N2C[C@@H]3C(=O)NC(=O)[C@@H]3C2)cc1` [Compound I-154], the pIC50 is < 4.00.

Consider `O=C1NC(=O)[C@@H]2CN(c3cccc(Cl)c3)C[C@H]12` [Compound I-126], for which the pIC50 is < 4.00.

On to `O=C1CC2(CCN(Cc3cccc4cccnc34)CC2)CC(=O)N1` [Compound I-329], for which the negative logarithm of the IC50 (pIC50) is < 4.00.

For `O=C1CC2(CCN(c3ccccc3Cl)CC2)CC(=O)N1` [Compound I-115], the pIC50 is < 4.00.

For the compound `O=C1NC(=O)c2cc(Br)ccc21` [Compound I-28, 5-bromo-2H-isoindole-1,3-dione], the pIC50 is < 4.00.

As for `O=C1NC(=O)[C@@H]2CN(Cc3ccc(F)c4ccccc34)C[C@H]12` [Compound I-313], the pIC50 was < 4.00.

Turning to `O=C1NC(=O)[C@@H]2CN(c3cccc4ncccc34)C[C@H]12` [Compound I-131], the pIC50 was < 4.00.

With `O=C(O)c1cccc(N2C[C@@H]3C(=O)NC(=O)[C@@H]3C2)c1` [Compound I-143], the pIC50 was < 4.00.

As for `O=C1NC(=O)[C@@H]2CN(Cc3cc4ccccc4o3)C[C@H]12` [Compound I-316], the pIC50 is 4.00 to 4.52.

On to `CS(=O)(=O)c1ccc(N2C[C@@H]3C(=O)NC(=O)[C@@H]3C2)cc1` [Compound I-144], for which the pIC50 was < 4.00.

With `O=C1NC(=O)[C@@H]2CN(c3ccccc3)C[C@H]12` [Compound I-158], the pIC50 is < 4.00.

Take `COc1ccc(CN2CCC3(CC2)CC(=O)NC(=O)C3)cn1` [Compound I-345]: the pIC50 was < 4.00.

As to `O=C1CC2(CCN(c3ccc(F)cc3Cl)CC2)CC(=O)N1` [Compound I-110], the pIC50 is < 4.00.

On to `COCc1cccc(N2C[C@@H]3C(=O)NC(=O)[C@@H]3C2)c1` [Compound I-181], for which the pIC50 was < 4.00.

Take `O=C1NC(=O)c2cc(NC(=O)N3CCCCC3)ccc21` [Compound I-283]: the negative logarithm of the IC50 (pIC50) is < 4.00.

Turning to `O=C1CC2(CCN(c3ccc(OC(F)(F)F)cc3)CC2)CC(=O)N1` [Compound I-105], the pIC50 is < 4.00.

In the case of `O=C1CC2(C(=O)N1)C(=O)Nc1ccccc12` (stereo not drawn) [Compound I-174], the pIC50 was < 4.00.

Take `Cn1c(=O)c2cc(Br)ccc2n(C)c1=O` [Compound I-191]: the pIC50 is < 4.00.

As to `O=C1NC(=O)[C@@H]2CN(C(=O)c3ccc4ccccc4c3)C[C@H]12` [Compound I-317], the pIC50 was 4.00 to 4.52.

Take `O=C1CC2(CCN(C(=O)c3ccc(O)cc3)CC2)CC(=O)N1` [Compound I-369]: the pIC50 is < 4.00.

Regarding `O=C1CC2(CCN(c3ccc4c(c3)OCO4)CC2)CC(=O)N1` [Compound I-119], the pIC50 is < 4.00.

Regarding `O=C1CC2(CCN(c3cccc(C(=O)O)c3)CC2)CC(=O)N1` [Compound I-106], the pIC50 is < 4.00.

In the case of `O=C1CC2(CCN(Cc3ccncc3)CC2)CC(=O)N1` [Compound I-363], the pIC50 is < 4.00.

Regarding `Cc1cccc(CN2CCC3(CC2)CC(=O)NC(=O)C3)n1` [Compound I-349], the pIC50 is < 4.00.

With `COc1ccc(CN2C[C@@H]3C(=O)NC(=O)[C@@H]3C2)cn1` [Compound I-293], the pIC50 was < 4.00.

For `O=C1NC(=O)[C@@H]2CN(c3ccc4c(c3)OCO4)C[C@H]12` [Compound I-157], the pIC50 is < 4.00.

For `O=C1CC2(CCN(c3ccc(-c4ccccc4)c(F)c3)CC2)CC(=O)N1` [Compound I-160], the pIC50 was < 4.00.

Take `CCCCOc1ccc(CN2CCC3(CC2)CC(=O)NC(=O)C3)cc1` [Compound I-335]: the pIC50 was < 4.00.

On to `CC(C)Oc1cccc(N2C[C@@H]3C(=O)NC(=O)[C@@H]3C2)c1` [Compound I-137], for which the pIC50 was < 4.00.

For `COc1cccc(N2CCC3(CC2)CC(=O)NC(=O)C3)c1` [Compound I-88], the pIC50 is < 4.00.

On to `O=C1CC2(CCN(Cc3c[nH]c4ccccc34)CC2)CC(=O)N1` [Compound I-342], for which the negative-log IC50 (pIC50) is < 4.00.

As for `CS(=O)(=O)c1cccc(N2C[C@@H]3C(=O)NC(=O)[C@@H]3C2)c1` [Compound I-180], the pIC50 was < 4.00.

For the compound `O=C1CC2(CCN(Cc3cccc4ccccc34)CC2)CC(=O)N1` [Compound I-331], the pIC50 was < 4.00.

Consider `Nc1ccc(N2CCC3(CC2)CC(=O)NC(=O)C3)cc1` [Compound I-113], for which the pIC50 is < 4.00.

As for `Cc1ccccc1-c1ccc2c(c1)C(=O)NC2=O` [Compound I-30, 5-(2-methylphenyl)-2H-isoindole-1,3-dione], the pIC50 was < 4.00.

Take `O=C1NC(=O)[C@@H]2CN(C(=O)c3cccnn3)C[C@H]12` [Compound I-304]: the pIC50 was < 4.00.

For `O=C1NC(=O)[C@@H]2CN(Cc3ccc[nH]3)C[C@H]12` [Compound I-300], the pIC50 was < 4.00.

For `O=C1CC2(CCN(c3ccc4c(c3)CCO4)CC2)CC(=O)N1` [Compound I-118], the pIC50 is < 4.00.

For `COc1ccc2cc(N3CCC4(CC3)CC(=O)NC(=O)C4)ccc2c1` [Compound I-117], the pIC50 was < 4.00.

Regarding `Cn1c(=O)[nH]c(=O)c2cc(Br)ccc21` [Compound I-59, 6-bromo-1-methyl-3H-quinazoline-2,4-dione], the pIC50 was < 4.00.

As to `O=C1Cc2cnc(Br)cc2C(=O)N1` [Compound I-13, 7-bromo-2,4-dihydro-2,6-naphthyridine-1,3-dione], the pIC50 was < 4.00.
